Measured values: patent US20240299385A1 (ReWind Therapeutics NV, priority 2021, published 2024)

Tests used:
human GPR17 receptor = biological target: T1, human GPR17 receptor (Homo sapiens, UniProt Q13304); assay: Calcium mobilization functional assay (Fluo-8, FLIPR TETRA) in HEK-293 hGPR17 (Gα-q assay); assay type: cell-based; settings: antagonism of MDL29,951 (~EC80) induced Ca2+ signal; cell line (HEK-293 hGPR17 or HEK-293 Suchi5 hGPR17) not given
T1 construct: host or cells: HEK-293
Outline: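 Fluo-8-loaded HEK-293 hGPR17 cells (60 min dye loading, room temperature) were preincubated with compound for twenty minutes, then challenged with agonist MDL29,951 at ~EC80, 500 nM. Intracellular calcium release via Gα-q was recorded as FLIPR fluorescence for a further 2 minutes; compounds tested in duplicate.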

NMDA receptor = settings: selectivity, background statement; cited from earlier work

T1 sequence (Q13304 whole entry): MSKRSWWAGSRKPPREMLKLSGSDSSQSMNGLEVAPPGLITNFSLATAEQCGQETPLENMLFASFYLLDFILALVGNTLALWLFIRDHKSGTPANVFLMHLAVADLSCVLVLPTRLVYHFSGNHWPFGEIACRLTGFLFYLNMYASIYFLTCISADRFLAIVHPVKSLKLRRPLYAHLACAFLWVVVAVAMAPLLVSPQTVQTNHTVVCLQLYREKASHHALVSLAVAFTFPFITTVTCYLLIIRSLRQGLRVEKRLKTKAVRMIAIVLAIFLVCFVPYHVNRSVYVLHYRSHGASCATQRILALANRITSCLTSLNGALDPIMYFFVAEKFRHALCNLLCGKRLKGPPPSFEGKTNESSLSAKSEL

Row | Structure (SMILES) | IC50 (human GPR17 receptor) [nM] | fold more potent as an NMDA receptor antagonist than as a GPR17 activator (NMDA receptor)
1 | N#Cc1cc(F)c(NS(=O)(=O)c2c[nH]c(-c3ncco3)c2)cc1F [Cpd 658, N-(4-cyano-2,5-difluorophenyl)-5-(1,3-oxazol-2-yl)-1H-pyrrole-3-sulfonamide] | 500 to 5000 | 
2 | COc1csc(-c2cc(S(=O)(=O)Nc3cc(F)c(OC(F)F)cc3F)c[nH]2)c1 [Cpd 660, N-[4-(difluoromethoxy)-2,5-difluorophenyl]-5-(4-methoxythiophen-2-yl)-1H-pyrrole-3-sulfonamide] | < 500 | 
3 | N#Cc1ccc(F)c(-c2cc(S(=O)(=O)Nc3nc(F)c(OCCF)cc3F)c[nH]2)c1 [Cpd 662, 5-(5-cyano-2-fluorophenyl)-N-[3,6-difluoro-5-(2-fluoroethoxy)pyridin-2-yl]-1H-pyrrole-3-sulfonamide] | < 500 | 
4 | O=S(=O)(Nc1nc(F)c(OCCF)cc1F)c1c[nH]c(-c2nccs2)c1 [Cpd 665, N-[3,6-difluoro-5-(2-fluoroethoxy)pyridin-2-yl]-5-(1,3-thiazol-2-yl)-1H-pyrrole-3-sulfonamide] | < 500 | 
5 | O=S(=O)(Nc1cc(F)c(OC(F)F)cc1F)c1c[nH]c(-c2cc(Cl)cs2)c1 [Cpd 666, 5-(4-chlorothiophen-2-yl)-N-[4-(difluoromethoxy)-2,5-difluorophenyl]-1H-pyrrole-3-sulfonamide] | < 500 | 
6 | O=C(O)CCc1c(C(=O)O)[nH]c2cc(Cl)cc(Cl)c12 [MDL29,951, MDL 29,951] |  | approximately ten

Further lines, with some results ahead:

Row | IC50 (human GPR17 receptor) [nM] | Structure (SMILES) | fold more potent as an NMDA receptor antagonist than as a GPR17 activator (NMDA receptor)
7 | < 500 | Cc1csc(-c2cc(S(=O)(=O)Nc3cc(F)c(OC(F)F)cc3F)c[nH]2)c1 [Cpd 659, N-[4-(difluoromethoxy)-2,5-difluorophenyl]-5-(4-methylthiophen-2-yl)-1H-pyrrole-3-sulfonamide] | 
8 | < 500 | COc1csc(-c2cc(S(=O)(=O)Nc3cc(F)c(C#N)cc3F)c[nH]2)n1 [Cpd 661, N-(4-cyano-2,5-difluorophenyl)-5-(4-methoxy-1,3-thiazol-2-yl)-1H-pyrrole-3-sulfonamide] | 
9 | 500 to 5000 | N#Cc1cc(F)c(NS(=O)(=O)c2c[nH]c(-c3cccc4c(C(F)(F)F)coc34)c2)cc1F [Cpd 663, N-(4-cyano-2,5-difluorophenyl)-5-[3-(trifluoromethyl)-1-benzofuran-7-yl]-1H-pyrrole-3-sulfonamide] | 
10 | 500 to 5000 | O=S(=O)(Nc1cc(F)c(OC(F)F)cc1F)c1c[nH]c(-c2csc(Cl)c2)c1 [Cpd 664, 5-(5-chlorothiophen-3-yl)-N-[4-(difluoromethoxy)-2,5-difluorophenyl]-1H-pyrrole-3-sulfonamide] | 
11 | 5000 to 50000 | N#Cc1cc(F)c(NS(=O)(=O)c2c[nH]c(-c3ncc(C(F)(F)F)s3)c2)cc1F [Cpd 667, N-(4-cyano-2,5-difluorophenyl)-5-[5-(trifluoromethyl)-1,3-thiazol-2-yl]-1H-pyrrole-3-sulfonamide] | 
12 | 500 to 5000 | O=S(=O)(Nc1cc(F)c(OC(F)F)cc1F)c1c[nH]c(-c2nc3ccccc3s2)c1 [Cpd 668, 5-(1,3-benzothiazol-2-yl)-N-[4-(difluoromethoxy)-2,5-difluorophenyl]-1H-pyrrole-3-sulfonamide] | 
13 | < 500 | O=S(=O)(Nc1cc(F)c(C(F)(F)F)cc1F)c1c[nH]c(-c2ccoc2Cl)c1 [Cpd 669, 5-(2-chlorofuran-3-yl)-N-[2,5-difluoro-4-(trifluoromethyl)phenyl]-1H-pyrrole-3-sulfonamide] | 
